Results: patent EP4810052A2, “HCRHR2 SELECTIVE POLYPEPTIDES” (Gubra A/S, priority 2023, dated 2026)
Where two headings read alike, the source gives them in different places. Marks after values point to notes of the source that are not given here. Starred links: 1 amine or outer side, 2 acyl side, 3 side chain; linkers in the order of their positions; H or OH if unused. Non-standard residues stand in square brackets, D forms with d. Residues, ends and D or L forms follow the SMILES beside them. Groups on a side chain read outwards from the residue. *: point of attachment. C20 diacid = O=C(O)CCCCCCCCCCCCCCCCCCC(=O)*; γGlu = O=C(O)[C@H](CCC(=O)[*:2])N[*:1]; NMeI = CC[C@H](C)[C@H](NC)C(=O)O; Nle = CCCC[C@H](N)C(=O)O; AEEA = NCCOCCOCC(=O)O; Aib = CC(C)(N)C(=O)O

Experiments:
hCRHR2 = molecular target: T1, hCRHR2 (Homo sapiens, UniProt Q13324); test: HTRF cAMP assay, determination of hCRHR2 potency (peptide libraries 5 conc., purified peptides 11 conc.); format: cell-based
T1 sequence (Q13324 1-411): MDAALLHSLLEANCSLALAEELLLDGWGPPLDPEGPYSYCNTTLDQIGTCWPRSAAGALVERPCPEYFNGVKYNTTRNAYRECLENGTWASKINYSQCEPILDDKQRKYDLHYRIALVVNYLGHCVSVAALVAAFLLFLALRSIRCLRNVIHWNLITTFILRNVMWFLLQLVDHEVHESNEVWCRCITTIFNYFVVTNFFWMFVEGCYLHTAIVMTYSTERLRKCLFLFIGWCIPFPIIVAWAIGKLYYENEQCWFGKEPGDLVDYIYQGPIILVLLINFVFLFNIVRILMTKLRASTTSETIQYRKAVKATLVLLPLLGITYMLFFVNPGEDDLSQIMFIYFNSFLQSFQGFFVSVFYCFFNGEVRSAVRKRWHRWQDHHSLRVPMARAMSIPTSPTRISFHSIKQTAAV
Summary of the method: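 Read-out was HTRF competitive cAMP detection (d2-labelled cAMP, cryptate-labelled antibody) in suspended, freshly thawed CHO-K1 cells stably carrying human CRHR2.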

hCRHR1 = molecular target: T2, hCRHR1 (Homo sapiens, UniProt P34998); test: HTRF cAMP assay, determination of hCRHR1 potency (peptide libraries 5 conc., purified peptides 11 conc.); format: cell-based
T2 sequence (P34998 24-415): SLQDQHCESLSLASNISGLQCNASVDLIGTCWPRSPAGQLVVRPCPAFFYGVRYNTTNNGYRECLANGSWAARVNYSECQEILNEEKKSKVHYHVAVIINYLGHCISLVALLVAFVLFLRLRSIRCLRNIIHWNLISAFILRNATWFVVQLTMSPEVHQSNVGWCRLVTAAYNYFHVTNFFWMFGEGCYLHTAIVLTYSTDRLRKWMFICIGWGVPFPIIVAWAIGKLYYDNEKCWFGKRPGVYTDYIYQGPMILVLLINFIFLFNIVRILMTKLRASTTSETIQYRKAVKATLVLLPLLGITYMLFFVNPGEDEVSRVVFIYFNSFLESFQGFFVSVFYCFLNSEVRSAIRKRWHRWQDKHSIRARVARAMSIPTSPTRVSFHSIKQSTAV
Summary of the method: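 Cellular cAMP was read by time-resolved FRET between d2-labelled cAMP and cryptate anti-cAMP antibody. The cells were freshly thawed suspension CHO-K1 cells stably expressing human CRHR1.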

PK in rats = format: in vivo; set-up: T½ / MRT: unit not given here; conditions: Rat
Experimental: Lean male Sprague Dawley rats (RJHan:SD) were obtained from JanVier (JanVier Labs, France) at 7 weeks of age. The animals were pair housed until randomization under a 12/12 h dark-light cycle, light off at 3 PM. Room temperature was controlled to 22°C ± 1°C, with 60 % ± 20% humidity.
Animals had ad libitum access to regular rodent chow (Altromin 1324, Brogaarden, Denmark) and tap water.
After 2 weeks of acclimatization, the animals were single housed and randomized into treatment groups (n = 3 per group) based on body weight on study day -3. On study day 1, animals were dosed 50 nmol/kg IV and SC in combination of two peptides. Plasma samples were collected for PK analysis at times 0.17, 1, 3, 6, 24, 30, 48, 72 and 96 hours post dosing. Plasma samples were analyzed using LC-MSMS and PK parameters were estimated by Non-Compartmental Analysis (NCA).

[1] = Effect on acute food intake in mice; format: in vivo; conditions: single subcutaneous dose
Experimental: Male NMRI mice were obtained from JanVier (JanVier Labs, France) at 5 weeks of age. The animals were group-housed 4 mice pr. cage under a 12/12 h dark-light cycle, light off at 1 PM. Room temperature was controlled to 22°C ± 1°C, with 60 % ± 20% humidity. Animals had ad libitum access to regular rodent chow (Altromin 1324, Brogaarden, Denmark) and tap water.
Animals were transferred 5-7 days before the start of the study to a real-time food intake monitoring system, HM-2 system (MBRose, Denmark) to allow acclimatization to experimental conditions. As the animals were uniquely identified with microchips, each individual animal was identified by its microchip upon entry and exit from the food channel. Randomization of the mice for each study group (n=7-8) was based on body weight measured the day before the start of the study. A vehicle-treated group was included in each experiment. Six hours before the start of the dark phase, animals were fasted. One hour before the dark phase, animals were dosed once subcutaneously with test peptide. Food intake was reported hourly for a period of 72 hours. The percentage of food intake reduction was normalized to average food intake from the vehicle group. Statistical significance was evaluated using One-way analysis of variance with Dunnett's multiple comparison test. P < 0.05 was considered statistically significant.
Selected compounds were tested according to the general procedure on acute food intake in mice to determine the effect of a single subcutaneous dose on food intake in mice over 3 days.

[2] = pH 7.5

SMILES: CCCC[C@H](NC(=O)[C@@H](NC(=O)[C@H](CCC(=O)O)NC(=O)[C@H](C)NC(=O)[C@H](CC(N)=O)NC(=O)C(C)(C)NC(=O)[C@H](CCCCNC(=O)COCCOCCNC(=O)COCCOCCNC(=O)CC[C@H](NC(=O)CC[C@H](NC(=O)CCCCCCCCCCCCCCCCCCC(=O)O)C(=O)O)C(=O)O)NC(=O)[C@H](C)NC(=O)[C@H](CCC(N)=O)NC(=O)[C@H](CCC(=O)O)NC(=O)[C@H](CCCNC(=N)N)NC(=O)[C@H](C)NC(=O)[C@H](C)NC(=O)[C@H](CCCNC(=N)N)NC(=O)[C@H](C)NC(=O)[C@H](CCCNC(=N)N)NC(=O)[C@H](C)NC(=O)[C@H](CCC(N)=O)NC(=O)[C@H](CO)NC(=O)[C@H](CC(C)C)NC(=O)[C@H](CC(C)C)NC(=O)[C@@H](NC(=O)[C@H](CCC(N)=O)NC(=O)[C@H](CC(C)C)NC(=O)[C@H](CC(C)C)NC(=O)CNC(=O)[C@@H](NC(=O)[C@@H]1CCCN1C(=O)[C@@H](NC(=O)[C@H](CC(=O)O)NC(=O)[C@H](CC(C)C)NC(=O)[C@H](CO)NC(=O)[C@H](CC(C)C)NC(=O)[C@@H](NC(=O)[C@@H](NC)[C@@H](C)CC)C(C)C)C(C)C)[C@@H](C)CC)[C@@H](C)CC)[C@@H](C)CC)C(=O)N[C@@H](C)C(=O)N[C@@H](CCC(=O)O)C(=O)N[C@H](C(N)=O)C(C)C [compound 132] (H-[NMeI]VLSLDVPIGLLQILLSQARARAAREQAK([AEEA-AEEA-γGlu-γGlu-C20 diacid])[Aib]NAEI[Nle]AEV-NH2)
- EC50 (hCRHR2; Table 4, library peptides having X^38 = Nle, read-out: hCRHR2 pEC50 (converted)): 0.02 nM
- Selectivity ratio (hCRHR1/ hCRHR2) (hCRHR2; Table 5): >6494
- EC50 (hCRHR2; Table 5, purified peptides, read-out: hCRHR2 EC50): 0.77 nM
- EC50 (hCRHR1; Table 4, library peptides having X^38 = Nle, read-out: hCRHR1 pEC50 (converted)): 794 nM
- EC50 (hCRHR1; Table 5, purified peptides, read-out: hCRHR1 EC50): > 5000 nM
- MRT (PK in rats): 6.2
- T½ (PK in rats): 4.8
- % FI compared to vehicle, 24 h post-dosing ([1]; 30 nmol/kg): 46.64*** %
- % FI compared to vehicle, 24 h post-dosing ([1]; 100 nmol/kg): 18.5*** %
- % FI compared to vehicle, 24 h post-dosing ([1]; 300 nmol/kg): 20.04*** %
- Solubility pH 7.5, target conc. =10 mg/mL (measured mg/mL) [2]: 11 mg/mL
